Laboratory results published in PMC9728921, “Characterization of a KDM5 small molecule inhibitor with antiviral activity against hepatitis B virus” (PLOS ONE, 2022).

Legend:
Type in all cases: cell-based
Cytotoxicity CC50, MT-4 = conditions: human, MT-4 cells (T-lymphoblastoid cell line)
Source text: (§1) a Values represent the geometric mean and multiplicative standard deviation of 3 – 5 primary human hepatocyte (PHH) donors or 5 – 10 independent experiments.
(§2) b MT-4: human T-lymphoblastoid cell line; PBMC: peripheral blood mononuclear cell; Gal-HepG2: galactose adapted human hepatoblastoma cell line; Huh-7: human hepatoma cell line; Gal-PC3: galactose adapted human prostate carcinoma cell line; MRC-5: Medical Research Council 5 embryonal lung fibroblast; NRVM: neonatal rat ventricular cardiomyocytes

Cytotoxicity CC50, NRVM = conditions: rat, NRVM (neonatal rat ventricular cardiomyocytes)
Source text: as §1, §2

Cytotoxicity CC50, PBMC = conditions: human, PBMC (peripheral blood mononuclear cells)
Source text: as §1, §2

Cytotoxicity CC50, Huh-7 = conditions: human, Huh-7 cells (hepatoma cell line)
Source text: as §1, §2

Cytotoxicity CC50, PHH = conditions: human, primary human hepatocytes (PHH)
Source text: as §1, §2

[1] = Cytotoxicity CC50, Gal-HepG2; conditions: human, Gal-HepG2 cells (galactose adapted hepatoblastoma cell line)
Source text: as §1, §2

HBV [2] = assay: Extracellular HBV DNA (vDNA) by qPCR in HBV-infected PHH; conditions: Hepatitis B virus
Description: (§3) Approximately 24 hours after plating, PHH were infected with HepAD38-derived GTD virus at 500 viral genome equivalents per cell in maintenance medium supplemented with 4% PEG 8000 (Promega, Madison, WI; V3011). For patient sera infections, PHH were infected with 6 μl of patient sera in maintenance medium supplemented with 4% PEG 8000. Infections were allowed to proceed for 20–24 hours before removing remaining extracellular virions by washing with maintenance medium three times. […]
Viral DNA from PHH supernatants was purified using the Qiagen DNeasy 96 kit (Germantown, MD; 69582) following the manufacturer’s recommended protocol. Briefly, 50 μl of supernatant was collected, lysed with an equal volume of Qiagen ATL buffer containing 10% proteinase K, and then incubated at 56°C for 10 minutes. Lysates were then mixed with 100 μl of […] containing ethanol, transferred into the DNeasy 96 well plate, and placed onto a vacuum manifold (Qiagen; 19504). The vacuum was applied to bind DNA to the DNeasy membrane while contaminants passed through. DNA bound to the membrane was washed first with 500 μl of AW1followed by 500 μl of AW2 buffer. After washing, plates were centrifuged (Sigma Model 4-16S) at 6000 rpm for 2 minutes. DNA was then eluted with 100 μl of pre-warmed AE buffer by a final centrifugation step of 6000 rpm for 2 minutes.
Quantification of vDNA by qPCR (quantitative polymerase chain reaction) amplification of the HBVX region of the genome was performed by combining 5 μl of DNA, 900 nM of forward primer (5’[…] 3’), 900 nM of reverse primer (5’[…]-3’), 0.2 μM TaqMan probe (5’ [6FAM] […] [NFQ-MGB] 3’), and 1X TaqMan Fast Advanced Master Mix (Thermo Fisher Scientific; 4444557) for a total reaction volume of 20 μl in 96-well PCR plates (Thermo Fisher Scientific; 4346906). qPCR was carried out on a real-time PCR system (Thermo Fisher Scientific; QuantiStudio 7 Flex) using the following conditions: 95°C for 20 seconds, followed by 40 cycles of 95°C for 1 second and 60°C for 20 second. A plasmid containing the HBV full genome was used for the standard curve.
(§4) Antiviral activity of test compounds was determined from vRNA, vDNA, HBeAg, and HBsAg data by comparing compound-treated PHH to DMSO (vehicle)-treated PHH to generate a percent of DMSO control value (% DMSO control). The % DMSO control was calculated by the following equation: %DMSOControl=100xXc/XD where Xc is the signal from the compound-treated PHH and XD is the signal from the DMSO-treated PHH. The % DMSO control for vRNA, vDNA, HBeAg, HBsAg, GAPDH, or RPLP0 was plotted versus the log of each compound concentration in GraphPad Prism (version 6; Graphpad Software, LaJolla, CA) to generate dose-response curves. […] Dose-response curves were fitted using the nonlinear regression equation “log(agonist) versus response–variable slope (four parameters)” in GraphPad Prism to determine EC50 values.

HBV [3] = assay: Secreted HBsAg by immunoassay in HBV-infected PHH; conditions: Hepatitis B virus
Description: as §3
Hepatitis B e antigen (HBeAg) and Hepatitis B surface antigen (HBsAg) were detected in culture media at the indicated time by ELISA or electrochemiluminescence assay (MSD). The HBeAg and HBsAg ELISAs were performed using the HBeAg ELISA kit (International Immuno-Diagnostics, Foster City, CA) and HBsAg ETI-MAK-2 plus kit (DiaSorin, Stillwater, MN), respectively according to the manufacturer’s instructions. Concentrations were calculated by interpolation from standard curves with purified HBeAg and HBsAg. The MSD assay was performed according to the manufacturer’s instructions (Meso Scale Diagnostics, Rockville, MD). Briefly, cultured supernatants were inactivated with 0.5% Triton X-100 (30 minutes at 37°C) and then transferred into plates pre-spotted with both an anti-HBeAg antibody (Genway Bio, San Diego, CA) and a custom anti-HBsAg antibody. The plates were then incubated for two hours at room temperature with gentle shaking, followed by a wash step in PBS with 0.5% Tween. MSD sulfate tags anti-A and anti-B (1 μg/mL each) were then added to the wells and the plates incubated for a further two hours at room temperature with gentle shaking, followed by another wash step in PBS with 0.5% Tween. A 2X solution of MSD T Buffer Read was then added and the plate was read on a Sector Imager 6000 plate scanner.
as §4

[4] = read-out: vDNA EC50, PHH donor BCD, HBV GTD, treated every three to four days for 14 days
[5] = read-out: vDNA EC50, PHH donor Hu276, HBV GTD, treated every three to four days for 14 days
[6] = read-out: vDNA EC50, PHH donor Hu349, HBV GTD, treated every three to four days for 14 days
[7] = read-out: vDNA EC50, PHH donor Hu4167, HBV GTD, treated every three to four days for 14 days
[8] = read-out: vDNA EC50, PHH donor Hu7272, HBV GTD, treated every three to four days for 14 days
[9] = read-out: vDNA EC50, PHH donor Hu8130, HBV GTD, treated every three to four days for 14 days
[10] = read-out: vDNA EC50, PHH donor Hu8181, HBV GTD, treated every three to four days for 14 days
[11] = read-out: HBsAg EC50, PHH donor BCD, HBV GTD, treated every three to four days for 14 days
[12] = read-out: HBsAg EC50, PHH donor Hu276, HBV GTD, treated every three to four days for 14 days
[13] = read-out: HBsAg EC50, PHH donor Hu349, HBV GTD, treated every three to four days for 14 days
[14] = read-out: HBsAg EC50, PHH donor Hu4167, HBV GTD, treated every three to four days for 14 days
[15] = read-out: HBsAg EC50, PHH donor Hu7272, HBV GTD, treated every three to four days for 14 days
[16] = read-out: HBsAg EC50, PHH donor Hu8130, HBV GTD, treated every three to four days for 14 days
[17] = read-out: HBsAg EC50, PHH donor Hu8181, HBV GTD, treated every three to four days for 14 days

Work on CCN(CCN(C)C)C(=O)CNCc1cc(C(=O)O)ccn1 [GS-080] yielded a CC50 (Cytotoxicity CC50, MT-4) greater than 57 µM, a CC50 (Cytotoxicity CC50, NRVM) greater than 44 µM and a CC50 (Cytotoxicity CC50, PBMC) greater than 44 µM. It also gave a CC50 (Cytotoxicity CC50, Huh-7) greater than 44 µM, a CC50 (Cytotoxicity CC50, PHH) greater than 50 µM and a CC50 [1] greater than 44 µM.

Work on CCOC(=O)c1cc(CNCC(=O)N(CC)CCN(C)C)ncc1Br [GS-420] yielded an EC50 (HBV [2]; [4]) greater than 10000 nM, an EC50 (HBV [2]; [5]) greater than 10000 nM and an EC50 (HBV [2]; [6]) greater than 10000 nM. For the same compound, the EC50 (HBV [2]; [7]) was greater than 10000 nM, the EC50 (HBV [2]; [8]) was greater than 10000 nM and the EC50 (HBV [2]; [9]) was greater than 10000 nM. For the same compound, the EC50 (HBV [2]; [10]) was greater than 10000 nM, the EC50 (HBV [3]; [11]) was greater than 10000 nM and the EC50 (HBV [3]; [12]) was greater than 10000 nM. The EC50 (HBV [3]; [13]) was greater than 10000 nM, the EC50 (HBV [3]; [14]) was greater than 10000 nM and the EC50 (HBV [3]; [15]) was greater than 10000 nM. It also gave an EC50 (HBV [3]; [16]) greater than 10000 nM and an EC50 (HBV [3]; [17]) greater than 10000 nM.

For CCOC(=O)c1ccnc(CNCC(=O)N(CC)CCN(C)C)c1 [GS-5801], the CC50 (Cytotoxicity CC50, MT-4) was 51 ± 1.2 µM, the EC50 (HBV [2]; 336 h, read-out: EC50 range across genotypes, extracellular HBV DNA, range across genotypes, 14 days of dosing) was 79 to 250 nM and the EC50 (HBV [2]; 336 h, read-out: EC50 range for extracellular DNA, range over the seven PHH donors tested, HBV GTD, Day 14) was 7.1 to 1300 nM. For the same compound, the EC50 (HBV [2]; 336 h, read-out: median EC50, extracellular HBV DNA, median across HBV genotypes, 14 days of dosing) was 200 nM, the EC50 (HBV [2]; [4]) was 7.1 nM and the EC50 (HBV [2]; [5]) was 70 nM. It also gave an EC50 (HBV [2]; [6]) of 230 nM, an EC50 (HBV [2]; [7]) of 110 nM and an EC50 (HBV [2]; [8]) of 1100 nM. It also gave an EC50 (HBV [2]; [9]) of 1300 nM, an EC50 (HBV [2]; [10]) of 140 nM and an EC50 (HBV [2]; read-out: vDNA EC50, PHH infected with HBV GTA, treated every three to four days for 13 days) of 170 nM. For the same compound, the EC50 (HBV [2]; read-out: vDNA EC50, PHH infected with HBV GTC, treated every three to four days for 13 days) was 79 nM, the EC50 (HBV [2]; read-out: vDNA EC50, PHH infected with HBV GTD, treated every three to four days for 13 days (Table 3)) was 220 nM and the EC50 (HBV [2]; read-out: vDNA EC50, PHH infected with HBV GTE, treated every three to four days for 13 days) was 250 nM. It also gave a CC50 (Cytotoxicity CC50, NRVM) greater than 44 µM, a CC50 (Cytotoxicity CC50, PBMC) greater than 44 µM and a CC50 (Cytotoxicity CC50, Huh-7) greater than 44 µM. The CC50 (Cytotoxicity CC50, PHH) was greater than 50 µM, the EC50 (HBV [3]; 336 h, read-out: EC50, secreted HBsAg, across HBV genotypes (summary value), 14 days of dosing) was 170 nM and the EC50 (HBV [3]; 336 h, read-out: EC50 range across genotypes, secreted HBsAg, range across genotypes, 14 days of dosing) was 36 to 3100 nM. The EC50 (HBV [3]; 336 h, read-out: EC50 range for secreted HBsAg, range over the seven PHH donors tested, HBV GTD, Day 14) was 15 to 1700 nM, the EC50 (HBV [3]; [11]) was 15 nM and the EC50 (HBV [3]; [12]) was 150 nM. For the same compound, the EC50 (HBV [3]; [13]) was 970 nM, the EC50 (HBV [3]; [14]) was 240 nM and the EC50 (HBV [3]; [15]) was 5100 nM. For the same compound, the EC50 (HBV [3]; [16]) was 1700 nM, the EC50 (HBV [3]; [17]) was 61 nM and the EC50 (HBV [3]; read-out: HBsAg EC50, PHH infected with HBV GTA, treated every three to four days for 13 days) was 36 nM. It also gave an EC50 (HBV [3]; read-out: HBsAg EC50, PHH infected with HBV GTC, treated every three to four days for 13 days) of 120 nM, an EC50 (HBV [3]; read-out: HBsAg EC50, PHH infected with HBV GTD, treated every three to four days for 13 days (Table 3)) of 220 nM and an EC50 (HBV [3]; read-out: HBsAg EC50, PHH infected with HBV GTE, treated every three to four days for 13 days) of 3100 nM. It also gave a CC50 [1] greater than 44 µM.
